The experiment addresses T1, hα9α10 nAChR (Homo sapiens, UniProt Q9GZZ6+Q9UGM1).
T1 construct: expressed in transfected cells; host or cells: Xenopus laevis oocytes injected with cRNA
Put plainly: cell-based. The class given is cell-based.

Where “and” joins values, the source holds several entries; their conditions need not be identical. Equal entries are not always repeated.

As usually defined, the IC50 is the concentration that inhibits the measured activity by half.

T1 sequence (Q9UGM1 26-479 limits assumed): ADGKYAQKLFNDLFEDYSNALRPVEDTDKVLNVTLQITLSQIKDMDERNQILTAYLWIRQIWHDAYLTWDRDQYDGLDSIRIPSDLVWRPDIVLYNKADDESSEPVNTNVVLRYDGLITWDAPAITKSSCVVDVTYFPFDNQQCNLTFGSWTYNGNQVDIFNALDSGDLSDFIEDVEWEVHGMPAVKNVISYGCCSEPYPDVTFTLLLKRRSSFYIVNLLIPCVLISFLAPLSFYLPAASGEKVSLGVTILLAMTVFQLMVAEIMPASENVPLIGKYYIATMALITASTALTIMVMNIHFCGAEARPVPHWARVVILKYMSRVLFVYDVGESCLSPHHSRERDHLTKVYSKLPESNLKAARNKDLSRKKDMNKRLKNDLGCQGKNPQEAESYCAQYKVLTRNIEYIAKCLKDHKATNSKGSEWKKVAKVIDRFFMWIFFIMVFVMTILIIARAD
T1 sequence (Q9GZZ6 25-450): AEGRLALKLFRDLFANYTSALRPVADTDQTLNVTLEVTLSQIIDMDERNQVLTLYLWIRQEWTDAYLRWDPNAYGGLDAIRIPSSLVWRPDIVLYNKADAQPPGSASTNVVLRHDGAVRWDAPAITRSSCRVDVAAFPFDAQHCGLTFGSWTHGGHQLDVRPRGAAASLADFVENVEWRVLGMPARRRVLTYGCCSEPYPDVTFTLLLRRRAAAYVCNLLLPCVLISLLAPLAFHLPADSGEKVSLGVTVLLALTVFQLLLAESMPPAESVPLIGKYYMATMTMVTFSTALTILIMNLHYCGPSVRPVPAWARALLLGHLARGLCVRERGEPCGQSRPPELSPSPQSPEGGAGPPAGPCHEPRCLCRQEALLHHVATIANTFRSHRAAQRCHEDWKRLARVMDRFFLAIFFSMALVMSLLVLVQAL

`CSCC[C@H](NC(=O)[C@H](CC(C)C)NC(=O)[C@H](C)N)C(=O)N[C@@H](CO)C(=O)N[C@H](C(=O)NCC(=O)N[C@H](C(=O)N[C@@H](CC(N)=O)C(=O)N[C@@H](Cc1ccc(O)cc1)C(=O)N[C@@H](CCCNC(=N)N)C(=O)N[C@@H](CC(C)C)C(=O)N[C@@H](CC(C)C)C(=O)N[C@@H](CCCCN)C(=O)N[C@H](C(=O)N[C@@H](CSCC(N)=O)C(=O)N[C@@H](CCCNC(=N)N)C(=O)NCC(=O)N[C@@H](CO)C(=O)NCC(=O)N[C@@H](CCCNC(=N)N)C(=O)N[C@@H](Cc1ccc(O)cc1)C(=O)N[C@@H](CSCC(N)=O)C(=O)N[C@@H](CCCNC(=N)N)C(=O)N[C@@H](CO)C(=O)N1CCC[C@H]1C(=O)N[C@@H](Cc1ccc(O)cc1)C(=O)O)[C@@H](C)O)[C@@H](C)O)[C@@H](C)O` [GeXXVIIA-L-Nter]: the IC50 was 222 ± 14 nM; the “inhibition of ACh-evoked current, hα9α10 nAChR” value was > 90% and ~ 55%.

The values are drawn from article PMC5484120 (Marine Drugs, 2017).
